Experimental data as given in US7691861B2, “Indolymaleimide derivatives” (Novartis AG, priority 2004, dated 2010).

How the values were obtained:
Human recombinant PKCθ = Human recombinant PKCθ (Homo sapiens, UniProt Q04759); assay: Protein Kinase Cθ Assay; type: biochemical; conditions: 10 μM 33P-ATP
Protocol: (§1) The compounds of the invention are tested for their activity on different PKC isoforms according to the following method. Assay is performed in a white with clear bottom 384-well microtiterplate with non-binding surface. The reaction mixture (25 μl) contains 1.5 μM of a tridecapeptide acceptor substrate that mimics the pseudo substrate sequence of PKC α with the Ala→Ser replacement, 10 μM ^33P-ATP, 10 mM Mg(NO3)2, 0.2 mM CaCl2, […] at a protein concentration varying from 25 to 400 ng/ml (depending on the isotype used), lipid vesicles (containing 30 mol % phosphatidylserine, 5 mol % DAG and 65 mol % phosphatidylcholine) at a final lipid concentration of 0.5 mM, in 20 mM Tris-HCl buffer pH 7.4+0.1% BSA. Incubation is performed for 60 min at room temperature.
Human recombinant PKCθ is used under the assay conditions as described above.

Human recombinant PKCε = target: T1, Human recombinant PKCε (Homo sapiens, UniProt Q02156); assay: Protein Kinase Cε Assay; type: biochemical; conditions: 10 μM 33P-ATP
T1 construct: purchased Oxford Biomedical Research
T1 sequence (Q02156 1-737): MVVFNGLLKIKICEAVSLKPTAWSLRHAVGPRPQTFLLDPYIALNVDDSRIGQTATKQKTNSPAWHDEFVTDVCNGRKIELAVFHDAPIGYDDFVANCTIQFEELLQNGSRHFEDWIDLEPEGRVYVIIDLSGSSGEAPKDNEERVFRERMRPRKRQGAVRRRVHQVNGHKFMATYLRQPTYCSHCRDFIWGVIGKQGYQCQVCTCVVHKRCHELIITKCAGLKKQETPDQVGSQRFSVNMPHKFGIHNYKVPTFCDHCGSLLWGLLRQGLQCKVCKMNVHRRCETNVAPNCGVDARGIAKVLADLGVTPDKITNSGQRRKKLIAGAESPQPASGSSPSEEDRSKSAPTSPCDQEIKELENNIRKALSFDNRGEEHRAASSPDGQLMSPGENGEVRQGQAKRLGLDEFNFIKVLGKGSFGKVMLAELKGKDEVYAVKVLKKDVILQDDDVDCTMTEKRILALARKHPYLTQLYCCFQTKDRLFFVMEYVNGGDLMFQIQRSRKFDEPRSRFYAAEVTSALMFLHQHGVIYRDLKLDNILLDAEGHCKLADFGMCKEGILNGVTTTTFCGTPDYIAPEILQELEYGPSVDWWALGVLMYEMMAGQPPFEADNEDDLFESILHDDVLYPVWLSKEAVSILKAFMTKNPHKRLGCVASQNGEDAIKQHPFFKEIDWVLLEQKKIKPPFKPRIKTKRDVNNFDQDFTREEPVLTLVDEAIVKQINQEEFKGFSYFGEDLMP
Protocol: as §1
Human recombinant PKCε is obtained from Oxford Biomedical Research and is used under the assay conditions as described under Section A.1 above.

Human recombinant PKCη = target: T2, Human recombinant PKCη (Homo sapiens, UniProt P24723); assay: Protein Kinase Cη Assay; type: biochemical; conditions: 10 μM 33P-ATP
T2 construct: purchased PanVera
Protocol: as §1
Human recombinant PKCη is obtained from PanVera and is used under the assay conditions as described under Section A.1 above.

Human recombinant PKCδ = target: T3, Human recombinant PKCδ (Homo sapiens, UniProt Q05655); assay: Protein Kinase Cδ Assay; type: biochemical; conditions: 10 μM 33P-ATP
T3 construct: purchased Oxford Biomedical Research
Protocol: as §1
Human recombinant PKCδ is obtained from Oxford Biomedical Research and is used under the assay conditions as described under Section A.1 above.

Human recombinant PKCα = target: T4, Human recombinant PKCα (Homo sapiens, UniProt P17252); assay: Protein Kinase Cα Assay; type: biochemical; conditions: 10 μM 33P-ATP
T4 construct: purchased Oxford Biomedical Research
Protocol: as §1
Human recombinant PKCα is obtained from Oxford Biomedical Research and is used under the assay conditions as described under Section A.1 above.

[1] = test system: Jurkat cells transfected with a human interleukin-2 promoter/reporter gene construct; assay: CD28 Costimulation Assay; type: cell-based; conditions: IL-2 promoter luciferase reporter, 5.5 hours, read-out: IC50, inhibition of anti-T cell receptor/anti-CD28 and PMA/ionomycin stimulated Jurkat cells
Protocol: The assay is performed with Jurkat cells transfected with a human interleukin-2 promoter/reporter gene construct as described by Baumann G et al. in Transplant. Proc. 1992; 24:43-8, the β-galactosidase reporter gene being replaced by the luciferase gene (de Wet J., et al., Mol. Cell. Biol. 1987, 7(2), 725-737). Cells are stimulated by solid phase-coupled antibodies or phorbol myristate acetate (PMA) and the Ca^++ ionophore ionomycin as follows. For antibody-mediated stimulation Microlite TM1 microtiter plates (Dynatech) are coated with 3 μg/ml goat anti-mouse IgG Fc antibodies (Jackson) in 55 μl phosphate-buffered saline (PBS) per well for three hours at RT. Plates are blocked after removing the antibodies by incubation with 2% bovine serum albumin (BSA) in PBS (300 μl per well) for 2 hours at RT. […] After incubation for 5.5 hours at 37° C. in 5% CO2, the level of luciferase is determined by bioluminescence measurement. […] Luciferase activity is assessed with a bioluminescence reader (Labsystem, Helsinki, Finland) after automatic addition of 50 μl per well luciferase reaction buffer containing 20 mM Tricine, 1.07 mM (MgCO3)4Mg(OH)2×5H2O, 2.67 mM MgSO4, 0.1 mM EDTA, 33.3 mM DTT, 270 μM coenzyme A, 470 μM luciferin (Chemie Brunschwig AG), 530 μM ATP, pH 7.8. […] The inhibition obtained in the presence of a test compound is calculated as percent inhibition of the high control.

[2] = test system: spleen cells from CBA and BALB/c mice; assay: Allogeneic Mixed Lymphocyte Reaction (MLR); type: cell-based; conditions: CBA and BALB/c mouse spleen cells, 3H-thymidine incorporation after four days, read-out: IC50, inhibition of proliferation in two-way MLR
Protocol: Briefly, spleen cells from CBA and BALB/c mice (1.6×10^5 cells from each strain per well in flat bottom tissue culture microtiter plates, 3.2×10^5 in total) are incubated in RPMI medium containing 10% FCS, 100 U/ml penicillin, 100 μg/ml streptomycin (Gibco BRL, Basel, Switzerland), 50 μM 2-mercaptoethanol (Fluka, Buchs, Switzerland) and serially diluted compounds. Seven three-fold dilution steps in duplicates per test compound are performed. After four days of incubation 1 μCi ^3H-thymidine is added. Cells are harvested after an additional five-hour incubation period, and incorporated ^3H-thymidine is determined according to standard procedures. Background values (low control) of the MLR are the proliferation of BALB/c cells alone. Low controls are subtracted from all values. High controls without any sample are taken as 100% proliferation.

Human recombinant PKCβ1 = target: T5, Human recombinant PKCβ1 (Homo sapiens, UniProt P05771); assay: Protein Kinase Cβ1 Assay; type: biochemical; conditions: human recombinant PKCβ1, 10 μM 33P-ATP
T5 construct: purchased Oxford Biomedical Research
Protocol: as §1
Human recombinant PKCβ1 is obtained from Oxford Biomedical Research and is used under the assay conditions as described under Section A.1 above.

T2 sequence (P24723 whole entry): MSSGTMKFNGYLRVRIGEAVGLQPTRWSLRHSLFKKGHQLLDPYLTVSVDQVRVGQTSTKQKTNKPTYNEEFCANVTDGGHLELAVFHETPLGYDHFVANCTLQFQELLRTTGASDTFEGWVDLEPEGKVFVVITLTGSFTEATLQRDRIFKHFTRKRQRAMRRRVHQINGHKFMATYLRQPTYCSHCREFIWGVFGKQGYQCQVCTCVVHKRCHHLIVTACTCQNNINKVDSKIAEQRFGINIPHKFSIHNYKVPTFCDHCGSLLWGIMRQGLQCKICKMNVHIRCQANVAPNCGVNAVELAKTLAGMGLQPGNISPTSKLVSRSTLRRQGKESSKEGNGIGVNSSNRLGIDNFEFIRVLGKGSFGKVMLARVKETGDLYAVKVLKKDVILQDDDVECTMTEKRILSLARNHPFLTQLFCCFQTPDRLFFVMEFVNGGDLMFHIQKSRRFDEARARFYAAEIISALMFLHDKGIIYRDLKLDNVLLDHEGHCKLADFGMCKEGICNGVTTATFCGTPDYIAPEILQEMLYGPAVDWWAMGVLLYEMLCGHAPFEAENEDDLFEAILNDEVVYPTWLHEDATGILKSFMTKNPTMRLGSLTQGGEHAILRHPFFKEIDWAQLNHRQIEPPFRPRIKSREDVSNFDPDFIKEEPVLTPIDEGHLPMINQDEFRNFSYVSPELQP
T3 sequence (Q05655 whole entry): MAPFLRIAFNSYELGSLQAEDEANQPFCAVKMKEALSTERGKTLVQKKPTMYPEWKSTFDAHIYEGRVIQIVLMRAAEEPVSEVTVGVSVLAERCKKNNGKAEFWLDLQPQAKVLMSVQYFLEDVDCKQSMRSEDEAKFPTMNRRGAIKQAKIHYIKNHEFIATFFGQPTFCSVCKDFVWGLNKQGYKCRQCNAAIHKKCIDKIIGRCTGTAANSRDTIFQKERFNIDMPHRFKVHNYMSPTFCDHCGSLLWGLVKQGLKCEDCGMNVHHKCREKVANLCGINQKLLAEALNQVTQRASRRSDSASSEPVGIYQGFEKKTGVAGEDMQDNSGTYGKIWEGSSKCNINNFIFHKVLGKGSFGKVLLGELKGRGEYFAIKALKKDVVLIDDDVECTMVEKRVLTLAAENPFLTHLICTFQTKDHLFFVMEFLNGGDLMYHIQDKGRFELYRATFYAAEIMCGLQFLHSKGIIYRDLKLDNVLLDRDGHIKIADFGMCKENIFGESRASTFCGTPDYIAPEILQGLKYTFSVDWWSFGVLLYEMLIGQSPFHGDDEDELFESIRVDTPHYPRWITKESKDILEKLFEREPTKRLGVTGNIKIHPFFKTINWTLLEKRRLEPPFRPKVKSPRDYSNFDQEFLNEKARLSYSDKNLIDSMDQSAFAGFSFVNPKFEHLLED
Sequence of Human recombinant PKCθ (Q04759 whole entry, canonical isoform): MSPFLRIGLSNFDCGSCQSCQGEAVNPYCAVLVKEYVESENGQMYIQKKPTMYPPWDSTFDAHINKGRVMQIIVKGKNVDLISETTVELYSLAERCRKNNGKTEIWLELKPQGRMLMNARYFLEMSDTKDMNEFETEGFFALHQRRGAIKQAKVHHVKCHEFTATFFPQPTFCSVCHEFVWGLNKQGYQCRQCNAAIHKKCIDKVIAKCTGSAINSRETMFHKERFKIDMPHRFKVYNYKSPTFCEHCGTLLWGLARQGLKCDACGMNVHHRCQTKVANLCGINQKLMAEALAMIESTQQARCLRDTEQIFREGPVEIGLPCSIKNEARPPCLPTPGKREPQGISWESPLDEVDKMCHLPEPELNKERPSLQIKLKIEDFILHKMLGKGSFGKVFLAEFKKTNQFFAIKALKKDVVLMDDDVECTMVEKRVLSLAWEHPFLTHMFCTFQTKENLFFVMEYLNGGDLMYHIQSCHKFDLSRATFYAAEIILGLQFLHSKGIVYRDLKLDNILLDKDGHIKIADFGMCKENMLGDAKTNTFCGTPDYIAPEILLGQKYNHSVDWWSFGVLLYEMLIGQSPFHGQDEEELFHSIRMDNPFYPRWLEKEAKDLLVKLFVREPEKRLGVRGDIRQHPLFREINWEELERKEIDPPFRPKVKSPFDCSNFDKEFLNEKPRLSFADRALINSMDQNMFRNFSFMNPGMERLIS
T5 sequence (P05771 whole entry): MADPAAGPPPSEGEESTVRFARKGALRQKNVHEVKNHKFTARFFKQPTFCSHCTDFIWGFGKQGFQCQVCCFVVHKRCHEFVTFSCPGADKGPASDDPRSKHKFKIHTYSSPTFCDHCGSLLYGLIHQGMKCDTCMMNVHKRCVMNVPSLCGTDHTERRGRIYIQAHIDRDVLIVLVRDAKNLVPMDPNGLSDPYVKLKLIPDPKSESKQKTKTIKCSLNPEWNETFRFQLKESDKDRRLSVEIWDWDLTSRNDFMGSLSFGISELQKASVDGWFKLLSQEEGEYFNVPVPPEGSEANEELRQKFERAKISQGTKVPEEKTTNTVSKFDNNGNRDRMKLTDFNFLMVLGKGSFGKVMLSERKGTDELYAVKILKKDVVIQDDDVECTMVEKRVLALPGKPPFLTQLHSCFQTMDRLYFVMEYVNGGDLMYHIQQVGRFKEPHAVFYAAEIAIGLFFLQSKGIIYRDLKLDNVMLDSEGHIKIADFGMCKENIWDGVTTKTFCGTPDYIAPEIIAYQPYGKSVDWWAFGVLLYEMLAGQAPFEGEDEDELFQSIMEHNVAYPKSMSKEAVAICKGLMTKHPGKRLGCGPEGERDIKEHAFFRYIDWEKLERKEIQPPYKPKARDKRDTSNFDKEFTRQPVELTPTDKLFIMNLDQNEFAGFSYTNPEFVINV

Compound: CN(C)Cc1ccc2c(C3=C(c4cn(C)c5ccccc45)C(=O)NC3=O)c(Cl)ccc2c1 [example 1, 3-(2-Chloro-6-dimethylaminomethyl-naphthalen-1-yl)-4-(1-methyl-1H-indol-3-yl)-pyrrole-2,5-dione]
- IC50 (Human recombinant PKCθ): 19.2 nM
- IC50 (Human recombinant PKCε): 17.6 nM

Compound: Cc1cccc2c(C3=C(c4cccc5cc(CN)ccc45)C(=O)NC3=O)c[nH]c12 [example 3]
- IC50 (Human recombinant PKCη): 53.9 nM

Compound: CN(C)Cc1ccc2c(C3=C(c4c[nH]c5ccccc45)C(=O)NC3=O)c(Cl)ccc2c1 [example 4]
- IC50 (Human recombinant PKCδ): 9.4 nM
- IC50 (Human recombinant PKCη): 7.2 nM

Compound: Cc1cccc2c(C3=C(c4c(Cl)ccc5cc(CN(C)C)ccc45)C(=O)NC3=O)c[nH]c12 [example 5]
- IC50 (Human recombinant PKCα): 0.9 nM
- IC50 (Human recombinant PKCδ): 4.5 nM
- IC50 [1]: 11.5 nM
- IC50 [2]: 183 nM
- IC50 (Human recombinant PKCβ1): 2.3 nM

Compound: CNCc1ccc2c(C3=C(c4c[nH]c5ccccc45)C(=O)NC3=O)c(Cl)ccc2c1 [example 6]
- IC50 (Human recombinant PKCα): 1.1 nM
- IC50 (Human recombinant PKCε): 2.3 nM

Compound: CNCc1ccc2c(C3=C(c4c[nH]c5c(C)cccc45)C(=O)NC3=O)c(Cl)ccc2c1 [example 7]
- IC50 (Human recombinant PKCθ): 6.4 nM
- IC50 [1]: 27.5 nM
- IC50 [2]: 528 nM
- IC50 (Human recombinant PKCβ1): 2.8 nM
